Assay results published in ChEMBL document CHEMBL3774345, “Synthesis of new diarylamides with pyrimidinyl pyridine scaffold and evaluation of their anti-proliferative effect on cancer cell lines” (Bioorg Med Chem Lett, 2016).

Columns and labels:
Assay type in all cases: functional
[1] = tested on: Malme-3M; experiment: Cytotoxicity against human MALME-3M cells assessed as cell growth at 10 uM after 24 hrs by SRB assay; details: read-out: Activity
[2] = tested on: MDA-MB-468; experiment: Cytotoxicity against human MDA-MB-468 cells assessed as cell growth at 10 uM after 24 hrs by SRB assay; details: MDA-MB-468, 24 h, read-out: Activity
[3] = tested on: ACHN; experiment: Cytotoxicity against human ACHN cells assessed as cell growth at 10 uM after 24 hrs by SRB assay; details: read-out: Activity
[4] = tested on: SR; experiment: Cytotoxicity against human SR cells assessed as cell growth at 10 uM after 24 hrs by SRB assay; details: read-out: Activity
[5] = tested on: EKVX; experiment: Cytotoxicity against human EKVX cells assessed as cell growth at 10 uM after 24 hrs by SRB assay; details: read-out: Activity
[6] = tested on: KM12; experiment: Cytotoxicity against human KM12 cells assessed as cell growth at 10 uM after 24 hrs by SRB assay; details: KM12, 24 h, read-out: Activity
[7] = Cytotoxicity against human OVCAR3 cells assessed as cell growth at 10 uM after 24 hrs by SRB assay; details: OVCAR-3, 24 h, read-out: Activity
[8] = tested on: A549; experiment: Cytotoxicity against human A549 cells assessed as cell growth at 10 uM after 24 hrs by SRB assay; details: A549, 24 h, read-out: Activity
[9] = tested on: K562; experiment: Cytotoxicity against human K562 cells assessed as cell growth at 10 uM after 24 hrs by SRB assay; details: K562, 24 h, read-out: Activity
[10] = Cytotoxicity against human PC3 cells assessed as cell growth at 10 uM after 24 hrs by SRB assay; details: PC-3, 24 h, read-out: Activity
[11] = tested on: SK-MEL-2; experiment: Cytotoxicity against human SK-MEL-2 cells assessed as cell growth at 10 uM after 24 hrs by SRB assay; details: SK-MEL-2, 24 h, read-out: Activity
[12] = Cytotoxicity against human LOXIMVI cells assessed as cell growth at 10 uM after 24 hrs by SRB assay; details: LOX IMVI, read-out: Activity
[13] = Cytotoxicity against human SNB75 cells assessed as cell growth at 10 uM after 24 hrs by SRB assay; details: SNB-75, 24 h, read-out: Activity
[14] = tested on: T47D; experiment: Cytotoxicity against human T47D cells assessed as cell growth at 10 uM after 24 hrs by SRB assay; details: read-out: Activity
[15] = tested on: MDA-MB-435; experiment: Cytotoxicity against human MDA-MB-435 cells assessed as cell growth at 10 uM after 24 hrs by SRB assay; details: MDA-MB-435, 24 h, read-out: Activity
[16] = tested on: NCI-H522; experiment: Cytotoxicity against human NCI-H522 cells assessed as cell growth at 10 uM after 24 hrs by SRB assay; details: NCI-H522, 24 h, read-out: Activity
[17] = tested on: CCRF-CEM; experiment: Cytotoxicity against human CCRF-CEM cells assessed as cell growth at 10 uM after 24 hrs by SRB assay; details: read-out: Activity
[18] = Cytotoxicity against human SF268 cells assessed as cell growth at 10 uM after 24 hrs by SRB assay; details: SF-268, 24 h, read-out: Activity
[19] = tested on: SK-MEL-28; experiment: Cytotoxicity against human SK-MEL-28 cells assessed as cell growth at 10 uM after 24 hrs by SRB assay; details: SK-MEL-28, 24 h, read-out: Activity
[20] = Cytotoxicity against human IGROV1 cells assessed as cell growth at 10 uM after 24 hrs by SRB assay; details: IGROV-1, 24 h, read-out: Activity
[21] = tested on: SN12C; experiment: Cytotoxicity against human SN12C cells assessed as cell growth at 10 uM after 24 hrs by SRB assay; details: read-out: Activity
[22] = tested on: MDA-MB-231; experiment: Cytotoxicity against human MDA-MB-231 cells assessed as cell growth at 10 uM after 24 hrs by SRB assay; details: MDA-MB-231, 24 h, read-out: Activity
[23] = Cytotoxicity against human UACC257 cells assessed as cell growth at 10 uM after 24 hrs by SRB assay; details: UACC-257, 24 h, read-out: Activity
[24] = Cytotoxicity against human HL-60(TB) cells assessed as cell growth at 10 uM after 24 hrs by SRB assay; details: HL-60, 24 h, read-out: Activity
[25] = Cytotoxicity against human UACC62 cells assessed as cell growth at 10 uM after 24 hrs by SRB assay; details: UACC-62, 24 h, read-out: Activity
[26] = tested on: M14; experiment: Cytotoxicity against human M14 cells assessed as cell growth at 10 uM after 24 hrs by SRB assay; details: M14, 24 h, read-out: Activity
[27] = Cytotoxicity against human DU145 cells assessed as cell growth at 10 uM after 24 hrs by SRB assay; details: DU-145, 24 h, read-out: Activity
[28] = tested on: MCF7; experiment: Cytotoxicity against human MCF7 cells assessed as cell growth at 10 uM after 24 hrs by SRB assay; details: MCF7, 24 h, read-out: Activity
[29] = Cytotoxicity against human NCI-ADR-RES cells assessed as cell growth at 10 uM after 24 hrs by SRB assay; details: read-out: Activity
[30] = Cytotoxicity against human HCC2998 cells assessed as cell growth at 10 uM after 24 hrs by SRB assay; details: HCC 2998, 24 h, read-out: Activity
[31] = Cytotoxicity against human TK10 cells assessed as cell growth at 10 uM after 24 hrs by SRB assay; details: TK-10, 24 h, read-out: Activity
[32] = tested on: NCI-H23; experiment: Cytotoxicity against human NCI-H23 cells assessed as cell growth at 10 uM after 24 hrs by SRB assay; details: NCI-H23, 24 h, read-out: Activity
[33] = Cytotoxicity against human OVCAR4 cells assessed as cell growth at 10 uM after 24 hrs by SRB assay; details: OVCAR-4, 24 h, read-out: Activity
[34] = Cytotoxicity against human Caki1 cells assessed as cell growth at 10 uM after 24 hrs by SRB assay; details: CAKI-1, 24 h, read-out: Activity
[35] = tested on: A498; experiment: Cytotoxicity against human A498 cells assessed as cell growth at 10 uM after 24 hrs by SRB assay; details: A498, 24 h, read-out: Activity
[36] = Cytotoxicity against human RXF393 cells assessed as cell growth at 10 uM after 24 hrs by SRB assay; details: RXF 393, 24 h, read-out: Activity
[37] = Cytotoxicity against human MOLT4 cells assessed as cell growth at 10 uM after 24 hrs by SRB assay; details: MOLT-4, 24 h, read-out: Activity
[38] = Cytotoxicity against human SF539 cells assessed as cell growth at 10 uM after 24 hrs by SRB assay; details: SF-539, 24 h, read-out: Activity
[39] = Cytotoxicity against human HCT116 cells assessed as cell growth at 10 uM after 24 hrs by SRB assay; details: HCT-116, 24 h, read-out: Activity
[40] = Cytotoxicity against human SNB19 cells assessed as cell growth at 10 uM after 24 hrs by SRB assay; details: SNB-19, 24 h, read-out: Activity

| SMILES | growth at 10 µM [1] [%] | growth at 10 µM [2] [%] | growth at 10 µM [3] [%] | growth at 10 µM [4] [%] | growth at 10 µM [5] [%] | growth at 10 µM [6] [%] | growth at 10 µM [7] [%] | growth at 10 µM [8] [%] | growth at 10 µM [9] [%] | growth at 10 µM [10] [%] | growth at 10 µM [11] [%] | growth at 10 µM [12] [%] | growth at 10 µM [13] [%] | growth at 10 µM [14] [%] | growth at 10 µM [15] [%] | growth at 10 µM [16] [%] | growth at 10 µM [17] [%] | growth at 10 µM [18] [%] | growth at 10 µM [19] [%] | growth at 10 µM [20] [%] | further results |
| --- | --- | --- | --- | --- | --- | --- | --- | --- | --- | --- | --- | --- | --- | --- | --- | --- | --- | --- | --- | --- | --- |
| COCCCNc1nc(NC(=O)c2cc(OC)cc(OC)c2)cc(-c2cccnc2)n1 | 112 | 94.8 | 98.2 | 80.6 | 105 | 103 | 113 | 91.2 | 86.1 | 87.3 | 78.8 | 94.5 | 73.1 | 63.8 | 100 | 76.5 | 91.7 | 100 | 105 | 102 | growth at 10 µM [21]: 95.3%; growth at 10 µM [22]: 69.1%; growth at 10 µM [23]: 106%; growth at 10 µM [24]: 90.2%; growth at 10 µM [25]: 111%; growth at 10 µM [26]: 107%; growth at 10 µM [27]: 101%; growth at 10 µM [28]: 97.8%; growth at 10 µM [29]: 83.5%; growth at 10 µM [30]: 110%; growth at 10 µM [31]: 86.7%; growth at 10 µM [32]: 98.6%; growth at 10 µM [33]: 108%; growth at 10 µM [34]: 99.4%; growth at 10 µM [35]: 67.7%; growth at 10 µM [36]: 97.7%; growth at 10 µM [37]: 83.5%; growth at 10 µM [38]: 88.9%; growth at 10 µM [39]: 90.3%; growth at 10 µM [40]: 98.3% |
| O=C(Nc1cc(-c2cccnc2)nc(NCCCN2CCOCC2)n1)c1ccc(F)cc1Cl | 108 | 93.5 | 102 | 92.8 | 102 | 104 | 106 | 102 | 83.3 | 91.2 | 91.3 | 96.5 | 112 | 99.5 | 106 | 87.1 | 88.3 | 94.9 | 108 | 95.9 | growth at 10 µM [21]: 92.1%; growth at 10 µM [22]: 93.2%; growth at 10 µM [23]: 95.4%; growth at 10 µM [24]: 83.6%; growth at 10 µM [25]: 105%; growth at 10 µM [26]: 102%; growth at 10 µM [27]: 112%; growth at 10 µM [28]: 87.4%; growth at 10 µM [29]: 94.5%; growth at 10 µM [30]: 98.4%; growth at 10 µM [31]: 97.1%; growth at 10 µM [32]: 90.5%; growth at 10 µM [33]: 115%; growth at 10 µM [34]: 90.3%; growth at 10 µM [35]: 81.2%; growth at 10 µM [36]: 102%; growth at 10 µM [37]: 98.4%; growth at 10 µM [38]: 101%; growth at 10 µM [39]: 106%; growth at 10 µM [40]: 94.2% |
| COCCCNc1nc(NC(=O)c2ccc(Cl)cc2C)cc(-c2cccnc2)n1 | 103 | 111 | 99.1 | 110 | 108 | 104 | 117 | 79.8 | 104 | 110 | 107 | 107 | 87.6 | 89.4 | 95.6 | 78.6 | 96.5 | 104 | 104 | 106 | growth at 10 µM [21]: 111%; growth at 10 µM [22]: 94%; growth at 10 µM [23]: 85.7%; growth at 10 µM [24]: 106%; growth at 10 µM [25]: 109%; growth at 10 µM [26]: 103%; growth at 10 µM [27]: 103%; growth at 10 µM [28]: 81.1%; growth at 10 µM [29]: 108%; growth at 10 µM [30]: 103%; growth at 10 µM [31]: 88.5%; growth at 10 µM [32]: 107%; growth at 10 µM [33]: 106%; growth at 10 µM [34]: 99.5%; growth at 10 µM [35]: 109%; growth at 10 µM [36]: 91.1%; growth at 10 µM [37]: 93.9%; growth at 10 µM [38]: 89.9%; growth at 10 µM [39]: 101%; growth at 10 µM [40]: 91.7% |
| COc1cc(OC)cc(C(=O)Nc2cc(-c3cccnc3)nc(NCCCN3CCOCC3)n2)c1 | 110 | 83.2 | 103 | 57.9 | 103 | 104 | 105 | 92.6 | 74.1 | 85.4 | 84.1 | 88.1 | 109 | 72.8 | 102 | 92 | 90.8 | 94.1 | 101 | 97.4 | growth at 10 µM [21]: 86.4%; growth at 10 µM [22]: 79.6%; growth at 10 µM [23]: 88.6%; growth at 10 µM [24]: 86.5%; growth at 10 µM [25]: 97.6%; growth at 10 µM [26]: 104%; growth at 10 µM [27]: 104%; growth at 10 µM [28]: 88%; growth at 10 µM [29]: 95.4%; growth at 10 µM [30]: 123%; growth at 10 µM [31]: 95.5%; growth at 10 µM [32]: 91.7%; growth at 10 µM [33]: 117%; growth at 10 µM [34]: 101%; growth at 10 µM [35]: 83.3%; growth at 10 µM [36]: 93.9%; growth at 10 µM [37]: 82.3%; growth at 10 µM [38]: 91.1%; growth at 10 µM [39]: 89.2%; growth at 10 µM [40]: 98.7% |
